The source of these data is patent publication US20240016938A1, “METHODS FOR INCREASING THE BIOAVAILABILITY OF NUCLEOSIDE MEDICINAL AGENTS” (ZOGENIX MDS, INC., priority 2022, published 2024).

The nature of the series: Pooled population PK analysis of dC and dT (five studies: healthy volunteers, renal impairment, TK2d participants). The following applies: human, in vivo. As to the method:
A phase 2 study was conducted as an open-label continuation of treatment with MT1621 in participants with TK2designed to evaluate the safety, tolerability, and PK of MT1621 (fixed dose combination of dC and dT supplied in a single packet). The study enrolled forty-seven (47) participants. After enrollment, participants transitioned from their current chemical grade 2′-deoxycytidine monophosphate/2′-deoxythymidine monophosphate (dCMP/dTMP) to deoxycytidine and deoxythymidine, or continued the use of deoxycytidine and deoxythymidine. Upon enrollment, participants who were on a stable maintenance dose of 400 mg/kg/day were treated with the same dose of deoxycytidine and deoxythymidine three-times daily (TID). Study participants who were on a total dose <400 mg/kg/day were transitioned to either 260 mg/kg/day (130 mg/kg/day of deoxycytidine and 130 mg/kg/day of deoxythymidine) TID, 520 mg/kg/day (260 mg/kg/day of deoxycytidine and 260 mg/kg/day of deoxythymidine) TID, or 800 mg/kg/day (400 mg/kg/day of deoxycytidine and 400 mg/kg/day of deoxythymidine) TID, depending on which was closest to the participants' previous dose.
The early protocol for deoxycytidine and deoxythymidine administration was for the participants to take the drug product without regard to food. […] Later in the program, when an unexpected effect of food on PK was noted, the protocol was amended to instruct the participants to take the drug product with food. By then, planned PK samples had been taken in a majority of the participants. A total of 3 blood samples were collected from each individual following study Day 1 to measure dC plasma concentrations. Sparse PK blood sampling and PD endpoint collection was conducted according to the following schedule: at Month 1 sampled 0.5, 1, 2, or 3 hours post-dose; and at Month 3 sampled 8, 10, 12, or 14 hours post-dose. During sampling, it was noted whether food was consumed from 1 hour pre-dose to 2 hours post-dose. And, the lower limit of quantification (LLOQ) was 0.5 ng/mL for both dC and dT.
For the calculation of the PK parameters, raw (unadjusted) plasma dC and dT concentrations below the limit of quantitation (BLQ) were set to 1% the limit of quantitation (LOQ) of the assay. […] Since all participants had measurable pre-dose concentrations, Kel and associated PK parameters were not calculated for unadjusted data.
Analysis of the PK data pooled from five (5) studies (including those described in Examples 1 and 2) comprising three (3) Phase 1 studies in healthy volunteers (HV) and two (2) open-label Phase 2 studies that included both adult and pediatric study participants with TK2d. A total of 119 study participants were included, which consisted of 44 healthy study participants, 16 study participants with renal impairment (moderate or severe), and 59 participants with TK2d that included participants aged from 0.9 years to 75.6 year of age.
Pooled population PK analysis confirmed that the fed state was a statistically significant covariate of the PK of dC including the TK2 deficient participants. Table 6 reflects analysis of all dC PK data including those for TK2 deficient participants. […] This is the pertinent value to estimate food effect on dC exposures. […] The decrease in the rate of dC absorption with food (parameter Ka in Table 6) is believed to be due to slower gastric/intestinal motility in the fed state. It is likely that the effect of food on dT concentration in participants with TK2 deficiency was masked by the high variability and limited PK sampling.

`Nc1ccn([C@H]2C[C@H](O)[C@@H](CO)O2)c(=O)n1` [dC, β-D-2′-deoxycytidine]: the “CL/F, apparent clearance: Bootstrap Median [2.5th-97.5th percentile]” value is listed as 392000 (318000, 492000) L/h; the “CL/F, apparent clearance: NONMEM Estimate (% RSE)” value is reported as 392000 (11.0%) L/h; the “IIV on BSL: Bootstrap Median [2.5th-97.5th percentile]” value is given as 26.9% (19.4%, 35.3%); the “IIV on BSL: NONMEM Estimate (% RSE)” value was 27.3% (15.0%) CV %. In addition, the “IIV on CL/F: Bootstrap Median [2.5th-97.5th percentile]” value is on record as 60.3% (36.2%, 82.3%); the “IIV on CL/F: NONMEM Estimate (% RSE)” value was 61.6% (18.0%) CV%; the “IIV on F: Bootstrap Median [2.5th-97.5th percentile]” value is recorded as 73.3% (37.8%, 102%); the “IIV on F: NONMEM Estimate (% RSE)” value is 75.1% (19.8%) CV %. Also, the “IIV on Ka: Bootstrap Median [2.5th-97.5th percentile]” value is reported as 62.6% (36.1%, 81.8%); the “IIV on Ka: NONMEM Estimate (% RSE)” value was 65.9% (13.6%) CV %; the “IIV on V/F: Bootstrap Median [2.5th-97.5th percentile]” value was 77.9% (39.3%, 107%); the “IIV on V/F: NONMEM Estimate (% RSE)” value is listed as 77.3% (18.0%) CV %. The “IOV on F: Bootstrap Median [2.5th-97.5th percentile]” value is listed as 31.4% (26.3%, 37.9%); the “IOV on F: NONMEM Estimate (% RSE)” value is listed as 31.5% (8.01%) CV %; the “Ka, absorption rate constant: Bootstrap Median [2.5th-97.5th percentile]” value was 0.465 (0.361, 0.638) h^−1; the “Ka, absorption rate constant: NONMEM Estimate (% RSE)” value is 0.466 (11.5%) h^−1. For the same compound, the “Proportional RUV: Bootstrap Median [2.5th-97.5th percentile]” value is 17.4% (16.1%, 18.8%); the “Proportional RUV: NONMEM Estimate (% RSE)” value is 17.5% (3.76%); the “V/F, apparent volume of distribution: NONMEM Estimate (% RSE)” value is 284000 (19.9%) L; the Vd/F was found to be 278000 L. For the same compound, the “dC BSL, dC endogenous baseline level: Bootstrap Median [2.5th-97.5th percentile]” value is given as 3.45 (3.21, 3.65) ng/mL; the “dC BSL, dC endogenous baseline level: NONMEM Estimate (% RSE)” value is on record as 3.45 (3.29%) ng/mL; the “decrease of absorption rate constant (Ka) with food intake” value was approximately 44%; the “difference in F between HV and TK2 deficient participants” value is “No difference in F was detected”. The “endogenous baseline across studies and populations” value was “the same across studies and populations”.
Take `Cc1cn([C@H]2C[C@H](O)[C@@H](CO)O2)c(=O)[nH]c1=O` [dT, β-D-2′-deoxythymidine]: the “F lower in healthy volunteers compared to TK2 deficient participants” value was 70-90%, the bioavailability was approximately 83%, the “decrease of F in Latino/Hispanic population” value is approximately 50% and the “decrease of absorption rate constant from first input compartment (K12) with high-fat content meal” value was approximately 80%. Also, the “decrease of lag time from second input compartment (ALAG3) with high-fat content meal” value was approximately 80%, the “dose proportionality of exposures following single ascending doses” value is listed as “more than dose proportional”, the “endogenous baseline across studies” value was 0.220 to 1.14 ng/mL and the “increase of F with a high-fat content meal” value is approximately 120%.

For orientation: Vd/F means the volume of distribution divided by bioavailability. By bioavailability is commonly meant dose-corrected exposure relative to a reference, in per cent.
